Laboratory results: US20060247184A1, “Treatment and prophylaxis of diseases and infections pigs and poultry” (Eco Animal Health Ltd., priority 2000, published 2006)
Converted amounts (≈) assume the structure as drawn. Where two headings read alike, the source gives them in different places.

Columns and labels:
[1] = tested on: Brachyspira hyodysenteriae; assay: Sensitivity (MIC) for AIVLOSIN and chlortetracycline, alone and in combination; type: cell-based; conditions: for MIC: Brachyspira hyodysenteriae, alone; for MIC of each for combination of CTC + AIV: in combination CTC + AIV
From the text: 4. Sensitivity of Bacteria for AIVLOSIN and Tetracyclines, Alone and in Combination.
Sensitivity is expressed as the lowest concentration of an antibiotic (in mcg/ml) that inhibits the growth of the test bacteria (MIC=Minimum Inhibitory Concentration).
Brachyspira Hyodysenteriae

Mycoplasma Synoviae = assay: Sensitivity (MIC) for AIVLOSIN and tetracyclines, alone and in combination; type: cell-based; conditions: for MIC: Mycoplasmopsis synoviae, alone; for MIC of each for combination CTC + AIV: in combination CTC + AIV; for MIC of each for combination OTC + AIV: in combination OTC + AIV
[2] = tested on: Brachyspira hyodysenteriae; assay: Swine dysentery animal disease model, prevention of clinical disease; type: in vivo, pigs
[3] = tested on: Brachyspira hyodysenteriae; assay: Swine dysentery, treatment of clinical outbreak; type: in vivo, pigs
[4] = tested on: Brachyspira hyodysenteriae; assay: In vitro MIC against Brachyspira hyodysenteriae strains (Table 2); type: cell-based
Clostridium perfringens = type: cell-based

## CN(C)[C@@H]1C(O)=C(C(N)=O)C(=O)[C@@]2(O)C(O)=C3C(=O)c4c(O)ccc(Cl)c4[C@@](C)(O)[C@H]3C[C@@H]12 [CTC, chlortetracycline]
[1]; strain AF6
  MIC: 0.5 µg/mL
  MIC of each for combination of CTC + AIV: 0.125 µg/mL
[1]; strain P265-9-97
  MIC: 16 µg/mL
  MIC of each for combination of CTC + AIV: 4.0 µg/mL
[1]; strain P268-9-97
  MIC: 16 µg/mL
  MIC of each for combination of CTC + AIV: 8.0 µg/mL
[1]; strain P578-6-97
  MIC: 16 µg/mL
  MIC of each for combination of CTC + AIV: 8.0 µg/mL
Mycoplasma Synoviae; strain 173
  MIC: 0.78 µg/mL
  MIC of each for combination CTC + AIV: 0.1 µg/mL
Mycoplasma Synoviae; strain 185
  MIC: 0.78 µg/mL
  MIC of each for combination CTC + AIV: 0.1 µg/mL
Mycoplasma Synoviae; strain 211
  MIC: 0.39 µg/mL
  MIC of each for combination CTC + AIV: 0.1 µg/mL
Mycoplasma Synoviae; strain 312
  MIC: 3.12 µg/mL
  MIC of each for combination CTC + AIV: 0.1 µg/mL
Mycoplasma Synoviae; strain wvu 1835
  MIC: 0.39 µg/mL
  MIC of each for combination CTC + AIV: 0.1 µg/mL

## CN(C)[C@@H]1C(O)=C(C(N)=O)C(=O)[C@@]2(O)C(O)=C3C(=O)c4c(O)cccc4[C@@](C)(O)[C@H]3[C@H](O)[C@@H]12 [OTC, oxytetracycline]
Mycoplasma Synoviae; strain 173
  MIC: 0.39 µg/mL
  MIC of each for combination OTC + AIV: 0.1 µg/mL
Mycoplasma Synoviae; strain 185
  MIC: 0.2 µg/mL
  MIC of each for combination OTC + AIV: 0.1 µg/mL
Mycoplasma Synoviae; strain 211
  MIC: 0.39 µg/mL
  MIC of each for combination OTC + AIV: 0.1 µg/mL
Mycoplasma Synoviae; strain 312
  MIC: 0.78 µg/mL
  MIC of each for combination OTC + AIV: 0.1 µg/mL
Mycoplasma Synoviae; strain wvu 1835
  MIC: 0.39 µg/mL
  MIC of each for combination OTC + AIV: 0.1 µg/mL

## C=C[C@]1(C)C[C@@H](OC(=O)CSCCN(CC)CC)[C@]2(C)[C@H](C)CC[C@]3(CCC(=O)[C@H]32)[C@@H](C)[C@@H]1O [Tiamulin, tiamulin]
[2]; artificially infected pigs
  Period for which the drug needs to be provided to prevent an outbreak: whole period in which the pigs are at risk
[3]; 100 ppm 10 days
  Mean days to clear B.Hyo: 5.8 days
  Mean days to recovery: 4.4 days
[3]; 100 ppm 10 days, clinical scoring 0 = normal, 6 = moribund, baseline
  Mean score at start: 4.0

## CC[C@H]1OC(=O)C[C@@H](O)[C@H](C)[C@@H](O[C@@H]2O[C@H](C)[C@@H](O[C@H]3C[C@@](C)(O)[C@@H](O)[C@H](C)O3)[C@H](N(C)C)[C@H]2O)[C@@H](CC=O)C[C@@H](C)C(=O)/C=C/C(C)=C/[C@@H]1CO[C@@H]1O[C@H](C)[C@@H](O)[C@@H](OC)[C@H]1OC [Tylosin, tylosin]
[4]; strain AF 6/80
  MIC: 6.25 µg/mL (≈ 6.82 µM)
[4]; strain PI8A
  MIC: > 200 µg/mL
[4]; strain PO268-07.98
  MIC: > 200 µg/mL
[2]; pig, in vivo
  Period for which the drug needs to be provided to prevent an outbreak: ≥ 21 days
[3]; 100 ppm 21 days
  Mean days to clear B.Hyo: 3.0 days
  Mean days to recovery: 2.1 days
  Mean score at start: 3.7

## zinc bacitracin
Clostridium perfringens; strain 378
  MIC: 3.125 µg/mL
Clostridium perfringens; strain 389
  MIC: 1.56 µg/mL
Clostridium perfringens; strain 392
  MIC: 1.56 µg/mL
Clostridium perfringens; strain 395
  MIC: 3.125 µg/mL
Clostridium perfringens; strain 410
  MIC: 3.125 µg/mL
Clostridium perfringens; strain 412
  MIC: 6.25 µg/mL
Clostridium perfringens; strain 413
  MIC: 6.25 µg/mL
